Our source for the T/C values is PubChem BioAssay AID248 (DTP/NCI, 2004).

Values joined by “and” are separate entries in the source; they are usually repeats but may differ in a detail not shown here. Equal entries are not always repeated. Inconclusive results and toxic doses are left out.

For the test, the system named is L1210 leukemia ip in BDF1 mice, survival T/C. Briefly: NCI In Vivo Anticancer Drug Screen. Data for tumor model L1210 Leukemia (intraperitoneal) in B6D2F1 (BDF1) mice. Particulars: endpoint: mean survival time, higher = longer survival. The procedure, abridged: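 Tumor was transplanted into mice, which were then dosed with test compound or vehicle alone. Survival was recorded for each group, and the treated figure was expressed relative to the control figure.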

Where [1] appears, read: dose: 50.0 mg/kg/injection, schedule: Q01DX009 (ip), vehicle: saline.
Setting [2] is: dose: 100.0 mg/kg/injection, schedule: Q01DX009 (ip), vehicle: saline.
[3] abbreviates: dose: 100.0 mg/kg/injection, schedule: Q04DX003 (ip), vehicle: saline.
Setting [4] is: dose: 200.0 mg/kg/injection, schedule: Q01DX009 (ip), vehicle: saline.
[5] abbreviates: dose: 200.0 mg/kg/injection, schedule: Q04DX003 (ip), vehicle: saline.
[6] abbreviates: dose: 100.0 mg/kg/injection, schedule: Q01DX009 (ip), vehicle: saline with Tween-80.
The mark [7] stands for this setting: dose: 100.0 mg/kg/injection, schedule: Q04DX003 (ip), vehicle: saline with Tween-80.
[8] abbreviates: dose: 200.0 mg/kg/injection, schedule: Q01DX009 (ip), vehicle: saline with Tween-80.
Where [9] appears, read: dose: 200.0 mg/kg/injection, schedule: Q04DX003 (ip), vehicle: saline with Tween-80.
Setting [10] is: dose: 400.0 mg/kg/injection, schedule: Q04DX003 (ip), vehicle: saline with Tween-80.
Where [11] appears, read: dose: 100.0 mg/kg/injection, schedule: Q01DX009 (ip), vehicle: Klucel (hydroxypropylcellulose) (HPC).
Where [12] appears, read: dose: 100.0 mg/kg/injection, schedule: Q04DX002 (ip), vehicle: Klucel (hydroxypropylcellulose) (HPC).
Setting [13] is: dose: 200.0 mg/kg/injection, schedule: Q01DX009 (ip), vehicle: Klucel (hydroxypropylcellulose) (HPC).
The mark [14] stands for this setting: dose: 200.0 mg/kg/injection, schedule: Q04DX002 (ip), vehicle: Klucel (hydroxypropylcellulose) (HPC).
Where [15] appears, read: dose: 400.0 mg/kg/injection, schedule: Q01DX009 (ip), vehicle: Klucel (hydroxypropylcellulose) (HPC).
Where [16] appears, read: dose: 400.0 mg/kg/injection, schedule: Q04DX002 (ip), vehicle: Klucel (hydroxypropylcellulose) (HPC).
Where [17] appears, read: dose: 100.0 mg/kg/injection, schedule: Q01DX001 (ip), vehicle: saline.
[18] abbreviates: dose: 200.0 mg/kg/injection, schedule: Q01DX001 (ip), vehicle: saline.
Setting [19] is: dose: 400.0 mg/kg/injection, schedule: Q01DX001 (ip), vehicle: saline.
The mark [20] stands for this setting: dose: 100.0 mg/kg/injection, schedule: Q04DX003 (ip), vehicle: Klucel (hydroxypropylcellulose) (HPC).
Setting [21] is: dose: 200.0 mg/kg/injection, schedule: Q04DX003 (ip), vehicle: Klucel (hydroxypropylcellulose) (HPC).
[22] abbreviates: dose: 400.0 mg/kg/injection, schedule: Q04DX003 (ip), vehicle: Klucel (hydroxypropylcellulose) (HPC).

For `c1ccc(CN2CCC(N3CCCC3)CC2)cc1`, the T/C is 101 % of control under setting [1]; 95 % of control under setting [2]; 109 % of control under setting [3]; 94 % of control under setting [4]; 101 % of control under setting [5].

`O=C(/C=C/c1ccc(F)cc1)c1ccc(Cl)cc1`: the T/C is 101 % of control under setting [6]; 96 % of control under setting [7]; 92 % of control under setting [8]; 90 % of control under setting [9]; 103 % of control (dose: 400.0 mg/kg/injection, schedule: Q01DX009 (ip), vehicle: saline with Tween-80); 94 % of control under setting [10].

For the compound `Cc1ccccc1N1C(=O)c2ccccc2C1=O`, the T/C is, setting by setting: under setting [11], 95 % of control; under setting [12], 96 % of control; under setting [13], 98 % of control; under setting [14], 86 % of control; under setting [15], 98 % of control; under setting [16], 93 % of control.

Take `CC1NC(=S)NC(=O)C1CCSC(=N)N` (stereo not drawn): the T/C is, setting by setting: under setting [17], 104 % of control; under setting [18], 98 % of control.

In the case of `SC1(S)CC(c2ccc(Cl)cc2)NC(c2ccc(Cl)cc2)C1` (stereo not drawn), the T/C was 100 % of control under setting [1]; 93 % of control and 102 % of control under setting [2]; 98 % of control under setting [3]; 93 % of control and 103 % of control under setting [4]; 89 % of control under setting [5].

`O=P(O)(CP(=O)(c1ccccc1)c1ccccc1)c1ccccc1`: the T/C by setting is: under setting [12], 94 % of control; under setting [14], 94 % of control.

For the compound `COC(=O)C1C2C=CC(C3C=CC32)C1C(=O)OC` (stereo not drawn), the T/C under setting [12] was 103 % of control, the T/C under setting [14] was 97 % of control and the T/C under setting [16] was 103 % of control.

Take `CC(C)C[As](C)(=O)O`: the T/C reads like this: (dose: 66.0 mg/kg/injection, schedule: Q01DX009 (ip), vehicle: saline) 107 % of control; under setting [2], 115 % of control; (dose: 150.0 mg/kg/injection, schedule: Q01DX009 (ip), vehicle: saline) 94 % of control.

Regarding `O=C1C2C3C=CC(C3)C2C(=O)N1c1ccccc1` (stereo not drawn), the T/C under setting [7] is 96 % of control, the T/C under setting [9] is 101 % of control and the T/C under setting [10] was 107 % of control.

In the case of `CC(C)(C)CC(C)(C)N(CSc1ccc(Br)cc1)CSc1ccc(Br)cc1`, the T/C runs as follows: under setting [17], 89 % of control; under setting [18], 90 % of control; under setting [19], 93 % of control.

Turning to `Cc1cc([N+](=O)[O-])c(N/N=C/c2ccccc2Cl)c([N+](=O)[O-])c1`, the T/C is 101 % of control under setting [11], 95 % of control under setting [13] and 95 % of control under setting [15].

For `CC(C)(CO)N=Cc1ccccc1O`, the T/C (dose: 25.0 mg/kg/injection, schedule: Q04DX003 (ip), vehicle: Klucel (hydroxypropylcellulose) (HPC)) is 96 % of control; the T/C (dose: 50.0 mg/kg/injection, schedule: Q04DX003 (ip), vehicle: Klucel (hydroxypropylcellulose) (HPC)) was 104 % of control; the T/C under setting [20] is 96 % of control.

With `CCOc1ccc(-n2c(O)c(N=Nc3ccccc3)c(=O)n(-c3ccccc3)c2=S)cc1`, the T/C is 94 % of control (dose: 50.0 mg/kg/injection, schedule: Q04DX003 (ip), vehicle: acetone); 89 % of control (dose: 100.0 mg/kg/injection, schedule: Q04DX003 (ip), vehicle: acetone); 96 % of control (dose: 200.0 mg/kg/injection, schedule: Q04DX003 (ip), vehicle: acetone).

For `C/C(=C/Cl)OC(C)C`, the T/C reads like this: (dose: 50.0 mg/kg/injection, schedule: Q01DX009 (ip), vehicle: acetone) 99 % of control; (dose: 100.0 mg/kg/injection, schedule: Q01DX009 (ip), vehicle: acetone) 99 % of control; (dose: 200.0 mg/kg/injection, schedule: Q01DX009 (ip), vehicle: acetone) 101 % of control.

In the case of `O=C(/C=C\c1ccc(O)cc1)c1ccccc1`, the T/C runs as follows: under setting [11], 97 % of control; under setting [20], 89 % of control; under setting [13], 106 % of control; under setting [21], 96 % of control; under setting [15], 101 % of control.

`[N-]=[N+]=C1N=CN=C1c1ncn[nH]1`: the T/C was 120 % of control (dose: 6.0 mg/kg/injection, schedule: Q01DX015 (ip), vehicle: carboxymethylcellulose (CMC)); 115 % of control (dose: 50.0 mg/kg/injection, schedule: Q01DX001 (ip), vehicle: carboxymethylcellulose (CMC)); 172 % of control (dose: 55.0 mg/kg/injection, schedule: Q01DX015 (ip), vehicle: carboxymethylcellulose (CMC)).

As for `CCCCOP(=O)(OCCCC)OC(C)C(C)=O` (stereo not drawn), the T/C runs as follows: under setting [17], 95 % of control; under setting [3], 102 % of control; under setting [18], 104 % of control; under setting [5], 98 % of control; under setting [19], 101 % of control; (dose: 400.0 mg/kg/injection, schedule: Q04DX003 (ip), vehicle: saline) 90 % of control.

Regarding `CC(=O)OC1CCCC1OC(=O)c1ccc([N+](=O)[O-])cc1` (stereo not drawn), the T/C reads like this: (dose: 100.0 mg/kg/injection, schedule: Q04DX003 (ip), vehicle: other) 106 % of control; (dose: 200.0 mg/kg/injection, schedule: Q04DX003 (ip), vehicle: other) 96 % of control; (dose: 400.0 mg/kg/injection, schedule: Q04DX003 (ip), vehicle: other) 95 % of control.

In the case of `O=[N+]([O-])c1ccc(Cl)c2ccccc12`, the T/C reads like this: (dose: 12.5 mg/kg/injection, schedule: Q01DX009 (ip), vehicle: saline with Tween-80) 94 % of control; (dose: 25.0 mg/kg/injection, schedule: Q01DX009 (ip), vehicle: saline with Tween-80) 91 % of control; (dose: 50.0 mg/kg/injection, schedule: Q01DX009 (ip), vehicle: saline with Tween-80) 87 % of control; under setting [6], 91 % of control; under setting [8], 88 % of control.

As to `Nc1nnnn1-c1ccc(O)cc1`, the T/C runs as follows: (dose: 100.0 mg/kg/injection, schedule: Q01DX001 (ip), vehicle: saline with Tween-80) 101 % of control; (dose: 200.0 mg/kg/injection, schedule: Q01DX001 (ip), vehicle: saline with Tween-80) 103 % of control; (dose: 400.0 mg/kg/injection, schedule: Q01DX001 (ip), vehicle: saline with Tween-80) 99 % of control.

Regarding `CC(=O)Nc1ccc(SCCCc2c(N)nc(N)nc2N)cc1`, the T/C is 100 % of control under setting [20], 99 % of control under setting [21] and 97 % of control under setting [22].

Turning to `CCCCCCCCCCCCCCCCc1c(C)ncn(C)c1=O`, the T/C under setting [20] was 98 % of control, the T/C under setting [21] is 101 % of control and the T/C under setting [22] is 95 % of control.

For `CCCSc1ccc(N2C(N)=NC(N)=NC2(C)C)cc1`, the T/C was 98 % of control (dose: 12.5 mg/kg/injection, schedule: Q01DX001 (ip), vehicle: saline); 98 % of control (dose: 12.5 mg/kg/injection, schedule: Q04DX003 (ip), vehicle: saline); 101 % of control (dose: 18.75 mg/kg/injection, schedule: Q01DX009 (ip), vehicle: saline with Tween-80); 108 % of control (dose: 25.0 mg/kg/injection, schedule: Q01DX001 (ip), vehicle: saline); 93 % of control (dose: 25.0 mg/kg/injection, schedule: Q04DX003 (ip), vehicle: saline); 96 % of control (dose: 37.5 mg/kg/injection, schedule: Q01DX009 (ip), vehicle: saline with Tween-80). Moreover, the T/C by setting is: (dose: 50.0 mg/kg/injection, schedule: Q01DX001 (ip), vehicle: saline) 108 % of control; (dose: 50.0 mg/kg/injection, schedule: Q04DX003 (ip), vehicle: saline) 104 % of control; (dose: 75.0 mg/kg/injection, schedule: Q04DX003 (ip), vehicle: saline) 97 % of control.

`Nc1[nH]c(=O)[nH]c(=O)c1N=Nc1ccc(S(=O)(=O)Nc2nccs2)cc1`: the T/C was 98 % of control under setting [17], 100 % of control under setting [18] and 102 % of control under setting [19].
